Patent EP0554400B1, “RETROVIRAL PROTEASE INHIBITORS” (MONSANTO COMPANY, priority 1990, dated 1992)
pEC50, pIC50: −log10 of the molar value.

Legend:
HIV protease = target: T1, HIV protease (Human immunodeficiency virus type 1 group M subtype B, UniProt P04585); assay: HIV protease enzyme assay (fluorogenic substrate 2-aminobenzoyl-Ile-Nle-Phe(p-NO2)-Gln-ArgNH2); format: biochemical
T1 construct: HIV protease is diluted in the assay buffer to a final enzyme concentration of 12.3 nanomolar, based on a molecular weight of 10,780
Text: The compounds of the present invention are effective HIV protease inhibitors. Utilizing an enzyme assay as described below, the compounds set forth in the examples herein disclosed inhibited the HIV enzyme. The preferred compounds of the present invention and their calculated IC50 (inhibiting concentration 50%, i.e., the concentration at which the inhibitor compound reduces enzyme activity by 50%) values are shown in Table 6. The enzyme method is described below. The substrate is 2-aminobenzoyl-Ile-Nle-Phe(p-NO2)-Gln-ArgNH2. The positive control is MVT-101 (Miller, M. et al, Science, 246, 1149 (1989)] The assay conditions are as follows: Assay buffer: • 20 mM sodium phosphate, pH 6.4 • 20% glycerol • 1 mM EDTA • 1 mM DTT • 0.1% CHAPS
The above described substrate is dissolved in DMSO, then diluted 10 fold in assay buffer. Final substrate concentration in the assay is 80 µM.
HIV protease is diluted in the assay buffer to a final enzyme concentration of 12.3 nanomolar, based on a molecular weight of 10,780.
The final concentration of DMSO is 14% and the final concentration of glycerol is 18%. The test compound is dissolved in DMSO and diluted in DMSO to 10x the test concentration; 10 µl of the enzyme preparation is added, the materials mixed and then the mixture is incubated at ambient temperature for 15 minutes. The enzyme reaction is initiated by the addition of 40µl of substrate. The increase in fluorescence is monitored at 4 time points (0, 8, 16 and 24 minutes) at ambient temperature. Each assay is carried out in duplicate wells.

HIV-1 = assay: HIV inhibition assay of acutely infected CEM cells (tetrazolium/MTT colorimetric); format: cell-based; conditions: Table 7, CEM cells acutely infected with HIV-1, 7 days, MTT
Procedure: The effectiveness of the compounds listed in Table 7 were determined in the above-described enzyme assay and in a CEM cell assay.
(§1) Methods 20, 309-321 (1988).

CEM cells = assay: Intrinsic toxicity of test compound in uninfected CEM cells (MTT); format: cell-based; conditions: Table 7, CEM cells without virus, 7 days, read-out: TD50 (the source's name)
Text: as §1

[1] = Table 6, 80 µM substrate, 12.3 nanomolar enzyme, pH 6.4
[2] = Table 7, above-described enzyme assay

Row | Molecule | pIC50 (HIV protease; [1]) | pEC50 (HIV-1; Human immunodeficiency virus 1, CCRF-CEM, 168 h) | pIC50 (HIV protease; [2]) | pEC50 (HIV-1) | CC50 (CEM cells)
1 | COc1ccc(COC(=O)N[C@@H](Cc2ccccc2)[C@H](O)CN(CCC(C)C)C(=O)NC(C)(C)C)cc1 (relative stereo) [Carbamic acid, [3-[[[(1,1-dimethylethyl)amino]carbonyl](3-methylbutyl)amino]-2-hydroxy-1-(phenylmethyl)propyl]-, (4-methoxyphenyl)methyl ester, [1S-[1R*,2S*]]] | 6.31 | 6.09 | – | – | –
2 | CC(C)CCN(C[C@@H](O)[C@H](Cc1ccccc1)NC(=O)OCc1ccccc1)C(=O)NC(C)(C)C (relative stereo) [Carbamic acid, [3-[[[(1,1-dimethylethyl)amino]carbonyl](3-methylbutyl)amino]-2-hydroxy-1-(phenylmethyl)propyl]-, phenylmethyl ester, [1S-[1R*,2S*]]] | 6.95 | – | – | – | –
3 | CC(C)C[C@H](NC(=O)[C@@H](N)Cc1ccccc1)C(=O)NC(=O)NC[C@H](O)[C@H](Cc1ccccc1)NC(=O)OC(C)(C)C [(2S,3S)-3-(N-1,1-dimethylethoxycarbonyl)amido-1-(L-phenylalanyl-L-leucylcarbamoyl)amino-4-phenyl butanol] | 5.30 | – | 5.30 | 4.89 | 54000 nM
4 | Phenylmethylamide, N-[3-[[[(1,1-dimethylethyl)amino]carbonyl](3-methylbutyl)amino]-2-hydroxy-1-(phenylmethyl)propyl]-3,3-dimethyl-, [1S-[1R*,2S*]] | 6.07 | – | 6.07 | – | –
